*1 amine or outer side, *2 acyl side, *3 side chain or, on linkers, in order; H or OH if unused. Where a SMILES comes first, the peptide text is derived from it. [ ]: non-standard residue; d: D form. The star is where a group is joined. X1 = O=C([C@H](CCc1cn(C2CCC(OC3O[C@H](CO[C@H]4O[C@H](CO[C@H]5O[C@H](CO)[C@@H](O)[C@H](O)[C@@H]5O[C@H]5O[C@H](CO)[C@@H](O)[C@H](O)[C@@H]5O)[C@@H](O)[C@H](O[C@H]5O[C@H](CO)[C@@H](O)[C@H](O)[C@@H]5O[C@H]5O[C@H](CO)[C@@H](O)[C@H](O)[C@@H]5O)[C@@H]4O)[C@@H](O)[C@H](O[C@H]4O[C@H](CO)[C@@H](O)[C@H](O)[C@@H]4O[C@H]4O[C@H](CO)[C@@H](O)[C@H](O)[C@@H]4O[C@H]4O[C@H](CO)[C@@H](O)[C@H](O)[C@@H]4O)[C@@H]3O)CC2)nn1)N[*:1])[*:2]; For = O=C*
System: HIV broadly neutralizing antibody 2G12
Assay: Radioactive 2G12-glycopeptide binding assay with protein G magnetic beads (binding curve and KD determination)
Description: The sequences were obtained by cloning non-selected library DNA. […] FIG. 9B is an SDS-PAGE analysis of the click reaction of the non-selected peptides. Both peptides were transcribed and translated from PCR-amplified DNA in Pure System that contains 0.02 mg/mL T7 RNA polymerase and additional 1 mM each NTP. The peptides were labeled with 3H-histidine and the bands were visualized by fluorography.
For round 10 winners, 0.12-0.2 nM radioactive glycopeptides were incubated with 0, 0.25, 0.5, 1, 2, 4, 8, 16, 32 or 64 nM 2G12 in 40 μL of selection buffer at room temperature for 1 h. Then, the solution was added to 0.12 mg of pre-equilibrated Dynabeads Protein G and tumbled at room temperature for 30 min. The supernatant was removed and the beads were washed with 3×40 μL of selection buffer. The radioactivities of the supernatant and wash solutions were measured by liquid scintillation counting as unbound fractions. […] The beads were resuspended in 40 μL of selection buffer, heated at 70° C. for 30 min to elute the bound glycopeptides, chilled on ice for 5 min, and tumbled at room temperature for 10 min. The supernatant was removed, and the beads were washed with 40 μL of selection buffer and resuspended in 40 μL of selection buffer. The radioactivities of these solutions and suspensions were measured by liquid scintillation counting separately and the values were combined as apparent bound fractions. […] All experiments were done at least in triplicate. KDs were calculated as described in the footnote of Table 4 (below).

[1] = Table 6 mutants/truncations, radioactive binding assay

| Molecule | Fmax [%] [1] | Kd [1] | 2G12 binding after truncation (truncated clones) | Kd (Table 4, radiolabeled ribosomally translated glycopeptide, varied 2G12, room temperature, ± standard error of curve fit) |
| --- | --- | --- | --- | --- |
| CC[C@H](C)[C@H](NC(=O)[C@H](CCCNC(=N)N)NC(=O)[C@H](CCCNC(=N)N)NC(=O)CNC(=O)[C@H](CC(=O)O)NC(=O)[C@H](CC(N)=O)NC(=O)[C@H](CC(C)C)NC(=O)[C@@H](NC(=O)[C@H](CCc1cn(C2CCC(OC3O[C@H](CO[C@H]4O[C@H](CO[C@H]5O[C@H](CO)[C@@H](O)[C@H](O)[C@@H]5O[C@H]5O[C@H](CO)[C@@H](O)[C@H](O)[C@@H]5O)[C@@H](O)[C@H](O[C@H]5O[C@H](CO)[C@@H](O)[C@H](O)[C@@H]5O[C@H]5O[C@H](CO)[C@@H](O)[C@H](O)[C@@H]5O)[C@@H]4O)[C@@H](O)[C@H](O[C@H]4O[C@H](CO)[C@@H](O)[C@H](O)[C@@H]4O[C@H]4O[C@H](CO)[C@@H](O)[C@H](O)[C@@H]4O[C@H]4O[C@H](CO)[C@@H](O)[C@H](O)[C@@H]4O)[C@@H]3O)CC2)nn1)NC=O)C(C)C)C(=O)N[C@H](C(=O)N[C@@H](CCC(N)=O)C(=O)N[C@@H](CCc1cn(C2CCC(OC3O[C@H](CO[C@H]4O[C@H](CO[C@H]5O[C@H](CO)[C@@H](O)[C@H](O)[C@@H]5O[C@H]5O[C@H](CO)[C@@H](O)[C@H](O)[C@@H]5O)[C@@H](O)[C@H](O[C@H]5O[C@H](CO)[C@@H](O)[C@H](O)[C@@H]5O[C@H]5O[C@H](CO)[C@@H](O)[C@H](O)[C@@H]5O)[C@@H]4O)[C@@H](O)[C@H](O[C@H]4O[C@H](CO)[C@@H](O)[C@H](O)[C@@H]4O[C@H]4O[C@H](CO)[C@@H](O)[C@H](O)[C@@H]4O[C@H]4O[C@H](CO)[C@@H](O)[C@H](O)[C@@H]4O)[C@@H]3O)CC2)nn1)C(=O)N[C@@H](CO)C(=O)N[C@@H](CS)C(=O)N[C@@H](CCC(=O)O)C(=O)N[C@@H](CC(C)C)C(=O)N1CCC[C@H]1C(=O)N[C@@H](CCc1cn(C2CCC(OC3O[C@H](CO[C@H]4O[C@H](CO[C@H]5O[C@H](CO)[C@@H](O)[C@H](O)[C@@H]5O[C@H]5O[C@H](CO)[C@@H](O)[C@H](O)[C@@H]5O)[C@@H](O)[C@H](O[C@H]5O[C@H](CO)[C@@H](O)[C@H](O)[C@@H]5O[C@H]5O[C@H](CO)[C@@H](O)[C@H](O)[C@@H]5O)[C@@H]4O)[C@@H](O)[C@H](O[C@H]4O[C@H](CO)[C@@H](O)[C@H](O)[C@@H]4O[C@H]4O[C@H](CO)[C@@H](O)[C@H](O)[C@@H]4O[C@H]4O[C@H](CO)[C@@H](O)[C@H](O)[C@@H]4O)[C@@H]3O)CC2)nn1)C(=O)N[C@H](C(=O)N[C@@H](CCCNC(=N)N)C(=O)N[C@@H](CCCNC(=N)N)C(=O)N[C@@H](CO)C(=O)NCC(=O)N[C@@H](CO)C(=O)NCC(=O)N[C@@H](CO)C(=O)N[C@@H](CC(C)C)C(=O)NCC(=O)N[C@@H](Cc1c[nH]cn1)C(=O)N[C@@H](Cc1c[nH]cn1)C(=O)N[C@@H](Cc1c[nH]cn1)C(=O)N[C@@H](Cc1c[nH]cn1)C(=O)N[C@@H](Cc1c[nH]cn1)C(=O)N[C@@H](Cc1c[nH]cn1)C(=O)N[C@@H](CCCNC(=N)N)C(=O)N[C@@H](CC(=O)O)C(=O)N[C@@H](Cc1ccc(O)cc1)C(=O)N[C@@H](CCCCN)C(=O)N[C@@H](CC(=O)O)C(=O)N[C@@H](CC(=O)O)C(=O)N[C@@H](CC(=O)O)C(=O)N[C@@H](CC(=O)O)C(=O)N[C@@H](CCCCN)C(=O)O)C(C)C)C(C)C (some centres unmarked) [Clone 10F5-Δ11, XVLNDGRRIVQXSCELPXVRRS] | 17% | > 200 nM | – | – |
| CC[C@H](C)[C@H](NC(=O)[C@H](CO)NC(=O)[C@H](CCCNC(=N)N)NC(=O)[C@H](CCc1cn(C2CCC(OC3O[C@H](CO[C@H]4O[C@H](CO[C@H]5O[C@H](CO)[C@@H](O)[C@H](O)[C@@H]5O[C@H]5O[C@H](CO)[C@@H](O)[C@H](O)[C@@H]5O)[C@@H](O)[C@H](O[C@H]5O[C@H](CO)[C@@H](O)[C@H](O)[C@@H]5O[C@H]5O[C@H](CO)[C@@H](O)[C@H](O)[C@@H]5O)[C@@H]4O)[C@@H](O)[C@H](O[C@H]4O[C@H](CO)[C@@H](O)[C@H](O)[C@@H]4O[C@H]4O[C@H](CO)[C@@H](O)[C@H](O)[C@@H]4O[C@H]4O[C@H](CO)[C@@H](O)[C@H](O)[C@@H]4O)[C@@H]3O)CC2)nn1)NC=O)C(=O)N1CCC[C@H]1C(=O)N[C@@H](Cc1c[nH]c2ccccc12)C(=O)N[C@@H](Cc1ccc(O)cc1)C(=O)N[C@H](C(=O)N[C@@H](Cc1ccc(O)cc1)C(=O)N[C@@H](CCCNC(=N)N)C(=O)N[C@@H](Cc1c[nH]c2ccccc12)C(=O)N[C@@H](CC(C)C)C(=O)N1CCC[C@H]1C(=O)N[C@@H](CC(N)=O)C(=O)NCC(=O)N[C@@H](CO)C(=O)NCC(=O)N[C@@H](CO)C(=O)N[C@@H](CC(C)C)C(=O)NCC(=O)N[C@@H](Cc1c[nH]cn1)C(=O)N[C@@H](Cc1c[nH]cn1)C(=O)N[C@@H](Cc1c[nH]cn1)C(=O)N[C@@H](Cc1c[nH]cn1)C(=O)N[C@@H](Cc1c[nH]cn1)C(=O)N[C@@H](Cc1c[nH]cn1)C(=O)N[C@@H](CCCNC(=N)N)C(=O)N[C@@H](CC(=O)O)C(=O)N[C@@H](Cc1ccc(O)cc1)C(=O)N[C@@H](CCCCN)C(=O)N[C@@H](CC(=O)O)C(=O)N[C@@H](CC(=O)O)C(=O)N[C@@H](CC(=O)O)C(=O)N[C@@H](CC(=O)O)C(=O)N[C@@H](CCCCN)C(=O)O)[C@@H](C)O (some centres unmarked) [Clone 10V1-Δ19, XRSIPWYTYRWLPN] (For-[X1]RSIPWYTYRWLPNGSGSLGHHHHHHRDYKDDDDK-OH; C-terminus assumed) | 20% | – | tight binding | – |
| For-[X1]PNCITQQDVR[X1]TSIPYTYTWPGSGSLGHHHHHHRDYKDDDDK-OH [Clone 10F3-Δ11, XPNCITQQDVRXTSIPYTYTWP] | 32% | – | – | – |
| XDTLHLKQIGGXPNSITQQDVRXTSIPYTYTWP [Clone 10F3-C15S] | 63% | 2.91 nM | – | – |
| XYKNIPSTTXNLYSKPXATVTTLKCKLNGNRIS [Clone 12G] | – | – | – | > 128 nM |

From US11732256B2, “Multivalent glycopeptides that tightly bind to target proteins” (Brandeis University, priority 2013, dated 2023)
